Literature values in PMC6007947, “Sensitivity of pretargeted immunoPET using ^68Ga-peptide to detect colonic carcinoma liver metastases in a murine xenograft model: Comparison with ^18FDG PET-CT” (Oncotarget, 2018).

Conditions: stated in discussion
Text: Pretargeting is one way to improve tumor uptake and tumor to normal organ uptake ratios by reducing the molecular size of the radioactive agent and using a non-radiolabeled bispecific antibody, such as TF2. TF2 is a humanized bispecific monoclonal antibody produced by the Dock-and-Lock® technology, containing two anti-CEA Fab fragments and another Fab fragment binding the HSG hapten component of the IMP288 hapten peptide. Compared to previously used bispecific antibodies with a single binding site for the tumor antigen and another for the hapten, this bivalency is expected to increase t ...

DOTA-D-Tyr-D-Lys(HSG)-D-Glu-D-Lys(HSG)-NH2 [IMP288, DOTA-conjugated tetrapeptide containing two HSG hapten structures]
Clearance from blood: within an hour
